From ChEMBL document CHEMBL4837186, “Structural Elucidation of Garcipaucinones A and B From Garcinia paucinervis Using Quantum Chemical Calculations” (J Nat Prod, 2021)

Assays:
Type in all cases: functional, cell-based
[1] = test system: HepG2; assay: Cytotoxicity against human HepG2 cells assessed as reduction in cell viability after 24 hrs by CCK8 assay; details: HepG2, 24 h
[2] = test system: T98G; assay: Cytotoxicity against human T98 cells assessed as reduction in cell viability after 24 hrs by CCK8 assay
[3] = test system: MCF7; assay: Cytotoxicity against human MCF7 cells assessed as reduction in cell viability after 24 hrs by CCK8 assay; details: MCF7, 24 h
[4] = test system: RAW264.7; assay: Anti-inflammatory activity in mouse RAW264.7 cells assessed as inhibition of LPS-induced NO production after 24 hrs by Griess reagent-based assay; details: RAW264.7, 24 h

| IC50 [4] | Structure (SMILES) | IC50 [1] | IC50 [2] | IC50 [3] |
| --- | --- | --- | --- | --- |
| > 20 µM | CC(C)=CCC/C(C)=C/CC/C(C)=C/CC[C@]1(C)CCC2=C(O1)[C@]1(C)C[C@@](O)(Oc3c1occc3=O)C2=O | > 20 µM | > 20 µM | > 20 µM |
| > 20 µM | CC(C)=CCC/C(C)=C/CC/C(C)=C/CC[C@]1(C)CCC2=C(O1)[C@@]1(C)C[C@](O)(Oc3c1occc3=O)C2=O | > 20 µM | > 20 µM | > 20 µM |
| 8.28 µM | C[C@@H]1C[C@H]2[C@@H]3CCC4=CC(=O)C=C[C@]4(C)[C@@]3(F)[C@@H](O)C[C@]2(C)[C@@]1(O)C(=O)CO [DEXAMETHASONE] | – | – | – |
